Assay results: patent US10722584B2, “Increasing the bioavailability of flavan-3-ols by polyphenols” (NESTEC S.A., priority 2012, dated 2020)

Design: species or system human
Conditions: in vivo
Text: Method: 12 healthy male (20-50 yrs) were enrolled in a randomized and double blind crossover design of four treatments with a minimum of 1 week wash-out period between each treatment was applied.
In the present invention, only 2 treatments are object of investigation: green tea extract (control) and green tea extract+hesperitin 7-glucoside (intervention).
Each treatment was formulated to contain 1 g equivalent of Choladi green tea extract. Subjects in the intervention group received a mixture of 1 g of green tea extract and 100 mg of hesperitin-7-glucoside.
After ingestion, plasma was collected over 24 h. Plasma EGCG analyses were performed by HPLC coupled with an electrochemical detection.
EGCG bioavailability was calculated from plasma kinetics by measuring the Area Under its concentration-time Curve (AUC).

absorption of EGCG when flavan-3-ols are co-administered: significantly enhanced
SMILES: COc1ccc([C@@H]2CC(=O)c3c(O)cc(O[C@@H]4O[C@H](CO)[C@@H](O)[C@H](O)[C@H]4O)cc3O2)cc1O [hesperitin 7-glucoside]
